For one compound, viability results are on record in patent publication US20230072523A1, “PROCESS AND SYSTEM FOR ACELLULAR THERAPY” (Orgenesis Inc., priority 2020, published 2023).

Usually viability stands for the share of living cells, or the viability signal relative to a control. Low readings indicate a greater loss of cells, high ones better survival.

This series in a line: acetaminophen cytotoxicity, cell viability by XTT assay. Format: cell-based. To be noted: 48 hrs incubation, control 100%; for viability at 48 h, 5 mM: acetaminophen 5 mM. An excerpt:
In the current example, cytotoxicity-induced paracrine EVs were replaced by current existing extracorporeal regimen, in addition to replace depleted body fluids with protective EVs fused during hemodialysis. EV mimetics—Bioxomes or chelator-containing EV mimetics, named Redoxomes as described by us recently in PCT publication no. PCT/IL2019/050391 (incorporated herein by reference) were used. Selected chelator, DSFX—deferoxamine embedded in Redoxomes can be fused with EVs or body fluids, or cells to protect from cytotoxicity damage, prevent liver and kidney failure and mortality, morbidity rate. To establish growth conditions sensitive to proliferation inhibition cytoparameters, calibration of dynamic cell growth parameters was performed by calibration of cell number in CellTiter-Glo Assay (Promega) shown on tables 3 and 4 below in relative units.
Specific protective anti-cytotoxicity example tested on calibrated above assays of EV mimetic proprietary Bioxome, is shown in table below. Cell viability, %, measured by XTT assay (Biological Industries Beit Haemek). Cell viability without treatment was calibrated by dose dependence to serum conditions and cell density. Cell seeding established for 10000, 20000 cells/well in 96 well plates. For RCB001 cells (liver derived mesenchymal like cells)—10,000 cells. For −HepG2 cells—20,000 cells density used. Cells were grown in DMEM plus 10% exosome depleted FBS (ThermoFisher Scientific).
In general terms: Tetrazolium dyes change colour on reduction, which living cells bring about.

Take `CC(=O)Nc1ccc(O)cc1` [Acetaminophen]: the viability at 48 h, 5 mM is 57 to 81% (RCB001 cells (liver derived mesenchymal like cells)) and 62% (human, HepG2 cells). This compound came in with a viability at 48 h, 10 mN (RCB001 cells (liver derived mesenchymal like cells), acetaminophen) of 46%. This compound also yielded a viability at 48 h, 10 mM (human, HepG2 cells, acetaminophen 10 mM) of 46%.
